In ChEMBL document CHEMBL1139061, “Ac2-DPD, the bis-(O)-acetylated derivative of 4,5-dihydroxy-2,3-pentanedione (DPD) is a convenient stable precursor of bacterial quorum sensing autoinducer AI-2” (Bioorg Med Chem Lett, 2007):
pEC50: −log10 of the molar value. Calls of active or inactive are those of the source. The calls are words filed in the database; no cut-off is given here.

Columns and labels:
[1] = tested on: Salmonella typhimurium; assay: Induction of beta-galactosidase production in Salmonella enterica Typhimurium MET844 after 4 hrs by beta-Gal reporter gene assay; type: functional, organism-based; conditions: Salmonella enterica subsp. enterica serovar Typhimurium
[2] = tested on: Bacillus cereus; assay: Inhibition of biofilm formation in Bacillus cereus at 8 uM after 24 hrs by 96-well polyvinylchloride microtiter plate assay; type: functional, organism-based
[3] = tested on: Vibrio harveyi; assay: Induction of bioluminescence in Vibrio harveyi after 4 hrs by luminescence reporter assay; conditions: read-out: IC50 (the source's name)

Row | Activity [1] | pEC50 [3] | SMILES | Activity [2]
1 | Active | 5.68 | CC(=O)OC[C@H](OC(C)=O)C(=O)C(C)=O | Active
2 | Active | – | CC(=O)C(=O)C(O)CO (stereo unspecified) | –
3 | – | – | CC(=O)C(=O)[C@@H](O)CO | Active
4 | – | 5.62 | CC(=O)OCC(OC(C)=O)C(=O)C(C)=O (stereo unspecified) | –
